From the supplement of paper PMC11208160 come the findings set out here.
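Also: IS621 bridge recombinase in Escherichia coli cells against a fixed T5 target plasmid.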

The data set is described as follows: recombinant UMI read abundance after kanamycin selection (control-corrected) (log10(CPM+1)); higher = more efficient recombination; extreme values may be limits of the assay; sequences stand for … in AGTGCAGAGAAAATCGGCCAGTTTTCTCTGCCTGCAGTCCGCATGCCGTGGGACCCCTTGGGTTCTAACCTGTTGCCTAGATTTATGCAGCGGACTGCCTTTCTCCCAAAGTGATAAACCGG…AGGTTGGTTTCACT; site = the 11-nt donor. Put shortly:
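The measure is log10(CPM+1) for recombinant UMIs. These were PCR-amplified across the donor–target junction and sequenced after Escherichia coli carrying a donor and donor-binding-loop pair library and a target plasmid with T7-inducible IS621 bridge recombinase was plated on IPTG (0.07 mM) plus kanamycin or unselected. CPM were averaged over two replicates and scaled by control-derived factors.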
As for “CGGAATCCATGGACCGGTTTTCCCGGTAATCCGTATTTGCA (site CGGAATCCTTG)”, the “recombinant UMI read abundance (log10)” value was determined as 0.628.
Then “CGGAATTCATGGACCGGTTTTCCCGGTAATCCGTATTTGAA (site CGGAATTCTTT)”, with 1.67; and “CGGAATTCATGGACCGGTTTTCCCGGTAATCCGTATTTGTA (site CGGAATCCTAA)”, with 0.00369.
On to “CGGAATTCATGGACCGGTTTTCCCGGTAATCCGTATTTGTA (site CGGAATTCTTA)”, for which the “recombinant UMI read abundance (log10)” value turned out to be 2.78.
Under “CGGACAACATGGACCGGTTTTCCCGGTAATCCGTATTTGCT (site CGGACAACTAG)” stands 1.89; under “CGGACAACATGGACCGGTTTTCCCGGTAATCCGTATTTGCT (site CGGACACCTAG)”, 0.
For “CGGACAACATGGACCGGTTTTCCCGGTAATCCGTATTTGCT (site CGGACAGCTAG)”, the “recombinant UMI read abundance (log10)” value was determined as 0.34.
Under “CGGACAACATGGACCGGTTTTCCCGGTAATCCGTATTTGCT (site CGGACATCTAG)” stands 2.39; under “CGGACATCATGGACCGGTTTTCCCGGTAATCCGTATTTGCA (site CGGACATCTAG)”, 0; under “CGGACATCATGGACCGGTTTTCCCGGTAATCCGTATTTGCA (site CGGACATCTCG)”, 0.
As to “CGGACATCATGGACCGGTTTTCCCGGTAATCCGTATTTGCA (site CGGACATCTGG)”, the “recombinant UMI read abundance (log10)” value turned out to be 0.
Then “CGGACATCATGGACCGGTTTTCCCGGTAATCCGTATTTGCA (site CGGACATCTTG)”, with 2.76.
Regarding “CGGACATCATGGACCGGTTTTCCCGGTAATCCGTATTTGGT (site CGGACATCTAA)”, the “recombinant UMI read abundance (log10)” value is 0.416.
As for “CGGACATCATGGACCGGTTTTCCCGGTAATCCGTATTTGGT (site CGGACATCTAC)”, the “recombinant UMI read abundance (log10)” value is 2.13.
Then “CGGACATCATGGACCGGTTTTCCCGGTAATCCGTATTTGGT (site CGGACATCTAG)”, with 0.
Under “CGGACATCATGGACCGGTTTTCCCGGTAATCCGTATTTGGT (site CGGACATCTAT)” stands 1.15; under “CGGACCTCATGGACCGGTTTTCCCGGTAATCCGTATTTGCT (site CGGACATCTAG)”, 0.00704; under “CGGACCTCATGGACCGGTTTTCCCGGTAATCCGTATTTGCT (site CGGACCTCTAG)”, 3.12.
Under “CGGACCTCATGGACCGGTTTTCCCGGTAATCCGTATTTGCT (site CGGACGTCTAG)” stands 0.00745; under “CGGACCTCATGGACCGGTTTTCCCGGTAATCCGTATTTGCT (site CGGACTTCTAG)”, 0; under “CGGACGTCATGGACCGGTTTTCCCGGTAATCCGTATTTGCT (site CGGACATCTAG)”, 2.54.
Take “CGGACGTCATGGACCGGTTTTCCCGGTAATCCGTATTTGCT (site CGGACCTCTAG)”: the “recombinant UMI read abundance (log10)” value is 0.
Take “CGGACGTCATGGACCGGTTTTCCCGGTAATCCGTATTTGCT (site CGGACGTCTAG)”: the “recombinant UMI read abundance (log10)” value is 3.06.
Then “CGGACGTCATGGACCGGTTTTCCCGGTAATCCGTATTTGCT (site CGGACTTCTAG)”, with 0.597.
Turning to “CGGACTACATGGACCGGTTTTCCCGGTAATCCGTATTTGAC (site AGGACTACTGT)”, the “recombinant UMI read abundance (log10)” value was determined as 0.
Under “CGGACTACATGGACCGGTTTTCCCGGTAATCCGTATTTGAC (site CGGACTACTGT)” stands 2.98.
Under “CGGACTACATGGACCGGTTTTCCCGGTAATCCGTATTTGAC (site GGGACTACTGT)” stands 0; under “CGGACTACATGGACCGGTTTTCCCGGTAATCCGTATTTGAC (site TGGACTACTGT)”, 1.51; under “CGGACTCCATGGACCGGTTTTCCCGGTAATCCGTATTTGGT (site CGGAATCCTAA)”, 0.00968.
“CGGACTCCATGGACCGGTTTTCCCGGTAATCCGTATTTGGT (site CGGACTCCTAC)”: the “recombinant UMI read abundance (log10)” value was 0.215.
With “CGGAGAGCATGGACCGGTTTTCCCGGTAATCCGTATTTGAA (site CGGAGAGCTTT)”, the “recombinant UMI read abundance (log10)” value was 2.27.
Then “CGGAGCACATGGACCGGTTTTCCCGGTAATCCGTATTTGCA (site CGGAGCACTTG)”, with 2.66; and “CGGAGGACATGGACCGGTTTTCCCGGTAATCCGTATTTGCA (site AGGAAGACTTG)”, with 0; and “CGGAGGACATGGACCGGTTTTCCCGGTAATCCGTATTTGCA (site CGGAGGACTTG)”, with 2.78.
Regarding “CGGAGGCCATGGACCGGTTTTCCCGGTAATCCGTATTTGTT (site CGGAATCCTAA)”, the “recombinant UMI read abundance (log10)” value is 0.00304.
Under “CGGAGGCCATGGACCGGTTTTCCCGGTAATCCGTATTTGTT (site CGGAGGCCTAA)” stands 0; under “CGGATAGCATGGACCGGTTTTCCCGGTAATCCGTATTTGTT (site CGGATAGCTAA)”, 2; under “CGGCATCCATGGACCGGTTTTCCCGGTAATCCGTATTTGTG (site CGGAATCCTAA)”, 0.
Take “CGGCATCCATGGACCGGTTTTCCCGGTAATCCGTATTTGTG (site CGGCATCCTCA)”: the “recombinant UMI read abundance (log10)” value stood at 0.644.
As for “CGGCCGGCATGGACCGGTTTTCCCGGTAATCCGTATTTGGC (site AGGCCGGCTGC)”, the “recombinant UMI read abundance (log10)” value came out at 0.
Then “CGGCCGGCATGGACCGGTTTTCCCGGTAATCCGTATTTGGC (site CGGCCGGCTGC)”, with 1.21.
Then “CGGCCGGCATGGACCGGTTTTCCCGGTAATCCGTATTTGGC (site GGGCCGGCTGC)”, with 0; and “CGGCCGGCATGGACCGGTTTTCCCGGTAATCCGTATTTGGC (site TGGCCGGCTGC)”, with 0; and “CGGCGCACATGGACCGGTTTTCCCGGTAATCCGTATTTGTA (site CGGCGCACTTA)”, with 1.57.
On to “CGGCTACCATGGACCGGTTTTCCCGGTAATCCGTATTTGCT (site CAGCTACCTAG)”, for which the “recombinant UMI read abundance (log10)” value came out at 0.
Under “CGGCTACCATGGACCGGTTTTCCCGGTAATCCGTATTTGCT (site CCGCTACCTAG)” stands 0; under “CGGCTACCATGGACCGGTTTTCCCGGTAATCCGTATTTGCT (site CGGCTACCTAG)”, 0; under “CGGCTACCATGGACCGGTTTTCCCGGTAATCCGTATTTGCT (site CTGCTACCTAG)”, 0.
Under “CGGCTGACATGGACCGGTTTTCCCGGTAATCCGTATTTGCC (site CGGCTGACTGG)” stands 1.22; under “CGGCTGACATGGACCGGTTTTCCCGGTAATCCGTATTTGTT (site CGGCTGACTAA)”, 0.0767.
Then “CGGGAACCATGGACCGGTTTTCCCGGTAATCCGTATTTGAG (site CGGGAACCTAT)”, with 0.
Turning to “CGGGAACCATGGACCGGTTTTCCCGGTAATCCGTATTTGAG (site CGGGAACCTCT)”, the “recombinant UMI read abundance (log10)” value came out at 0.013.
On to “CGGGAACCATGGACCGGTTTTCCCGGTAATCCGTATTTGAG (site CGGGAACCTGT)”, for which the “recombinant UMI read abundance (log10)” value was found to be 0.
Then “CGGGAACCATGGACCGGTTTTCCCGGTAATCCGTATTTGAG (site CGGGAACCTTT)”, with 0; and “CGGGAACCATGGACCGGTTTTCCCGGTAATCCGTATTTGCG (site CGGGAACCTCG)”, with 0.
In the case of “CGGGAACCATGGACCGGTTTTCCCGGTAATCCGTATTTGTT (site CGGAATCCTAA)”, the “recombinant UMI read abundance (log10)” value was found to be 0.
For “CGGGAACCATGGACCGGTTTTCCCGGTAATCCGTATTTGTT (site CGGGAACCTAA)”, the “recombinant UMI read abundance (log10)” value was determined as 0.47.
On to “CGGGAACCATGGACCGGTTTTCCCGGTAATCCGTATTTGTT (site CGGGAACCTAC)”, for which the “recombinant UMI read abundance (log10)” value came to 0.
Then “CGGGAACCATGGACCGGTTTTCCCGGTAATCCGTATTTGTT (site CGGGAACCTAG)”, with 0; and “CGGGAACCATGGACCGGTTTTCCCGGTAATCCGTATTTGTT (site CGGGAACCTAT)”, with 0.0108; and “CGGGAGACATGGACCGGTTTTCCCGGTAATCCGTATTTGCC (site CGGGAGACTGG)”, with 1.58.
For the sequence “CGGGAGACATGGACCGGTTTTCCCGGTAATCCGTATTTGCC (site CGGGAGCCTGG)”, the “recombinant UMI read abundance (log10)” value is 0.
Under “CGGGAGACATGGACCGGTTTTCCCGGTAATCCGTATTTGCC (site CGGGAGGCTGG)” stands 1.69; under “CGGGAGACATGGACCGGTTTTCCCGGTAATCCGTATTTGCC (site CGGGAGTCTGG)”, 0.663.
Then “CGGGAGTCATGGACCGGTTTTCCCGGTAATCCGTATTTGCG (site CGGGAGTCTAG)”, with 1.03; and “CGGGAGTCATGGACCGGTTTTCCCGGTAATCCGTATTTGCG (site CGGGAGTCTCG)”, with 2.8.
For “CGGGAGTCATGGACCGGTTTTCCCGGTAATCCGTATTTGCG (site CGGGAGTCTGG)”, the “recombinant UMI read abundance (log10)” value turned out to be 0.
Under “CGGGAGTCATGGACCGGTTTTCCCGGTAATCCGTATTTGCG (site CGGGAGTCTTG)” stands 0.888.
